Columns and labels:
sugar beet = experiment: Test B pre/postemergence sugar beet; format: in vivo, Beta vulgaris
Procedure, shortened: (§1)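 Response is a visual 0-to-10 score relative to untreated plants, where 0 means no effect and 10 means complete control, taken twelve to sixteen days after application. Treatments went onto soil at planting and onto foliage of 1- to 4-leaf plants, using a surfactant-containing non-phytotoxic solvent.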

blackgrass = experiment: Test B pre/postemergence blackgrass; format: in vivo, Alopecurus myosuroides
Procedure, shortened: as §1

bamyardgrass = experiment: Test B flood test barnyardgrass; format: in vivo, Echinochloa crus-galli; conditions: for Barnyardgrass plant response rating / Plant response rating, Barnyardgrass (0 to 10 scale, 0 is no effect, 10 is complete control): Pre-emergence; for Plant response rating, Barnyardgrass (0 to 10 scale, 0 is no effect, 10 is complete control): Rate 62 g/ha; for Plant response rating, Barnyardgrass (0 to 10 scale, 0 is no effect, 10 is complete control) / Barnyardgrass plant response rating (0 to 10 scale, 0 is no effect, 10 is complete control): visual evaluation after twelve to sixteen days; for Barnyardgrass plant response rating (0 to 10 scale, 0 is no effect, 10 is complete control): under heading Pre-emergence
Procedure, shortened: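 Plants were grown to the 2-leaf stage before treatment with test chemical, then held in a greenhouse for twelve to sixteen days. Injury was visually rated against untreated controls on a 0–10 scale, where 0 is no effect and 10 is complete control.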

surinam grass = experiment: Test B pre/postemergence surinam grass; format: in vivo, Brachiaria decumbens
Procedure, shortened: as §1

[1] = Postemergence, Rate 125 g/ha, scale 0 to 10, 0 is no effect, 10 is complete control
[2] = Postemergence, Rate 250 g/ha, scale 0 to 10, 0 is no effect, 10 is complete control
[3] = Postemergence, Rate 1000 g/ha, scale 0 to 10 (0 no effect, 10 complete control)
[4] = Preemergence, Rate 250 g/ha, scale of 0 to 10 where 0 is no effect and 10 is complete control
[5] = Preemergence, Rate 500 g/ha, scale of 0 to 10 where 0 is no effect and 10 is complete control
[6] = Rate 500 g/ha, Postemergence, scale 0 to 10, 0 no effect, 10 complete control
[7] = Rate 1000 g/ha, Preemergence, scale 0 to 10 (0 no effect, 10 complete control)
[8] = Rate 125 g/ha, flood test species, scale 0 to 10 where 0 is no effect and 10 is complete control
[9] = Rate 250 g/ha, flood-test species, scale 0 to 10, 0 is no effect, 10 is complete control
[10] = Rate 500 g/ha, flood test species, scale 0 to 10 (0 no effect, 10 complete control)
[11] = Preemergence, Rate 62 g/ha, scale 0 to 10 (0 no effect, 10 complete control)
[12] = Rate 62 g/ha, Postemergence, scale of 0 to 10 where 0 is no effect and 10 is complete control
[13] = Rate 125 g/ha, flood test species
[14] = Postemergence, Rate 500 g/ha, scale of 0 to 10 where 0 is no effect and 10 is complete control
[15] = Preemergence, Rate 125 g/ha, scale of 0 to 10 where 0 is no effect and 10 is complete control
[16] = Preemergence, Rate 500 g/ha, scale 0 to 10, 0 is no effect, 10 is complete control

Row | SMILES | Plant response rating, Sugarbeets (sugar beet; [1]) | Plant response rating, Sugarbeets (sugar beet; [2]) | Sugarbeets plant response rating (0 to 10 scale) (sugar beet; Preemergence, Rate 125 g/ha) | Sugarbeets plant response rating (sugar beet; [4]) | Sugarbeets plant response rating (sugar beet; [5]) | Plant response rating, Sugarbeets (sugar beet; [6]) | Plant response rating, Blackgrass (blackgrass; [1]) | Plant response rating, Blackgrass (blackgrass; [2]) | Blackgrass plant response rating (0 to 10 scale) (blackgrass; Preemergence, Rate 125 g/ha) | Blackgrass plant response rating (blackgrass; [4]) | Blackgrass plant response rating (blackgrass; [5]) | Plant response rating, Blackgrass (blackgrass; [6]) | Barnyardgrass plant response rating (bamyardgrass; [9]) | Barnyardgrass plant response rating (bamyardgrass; [10]) | Plant response rating, B. signalgrass (surinam grass; [1]) | Plant response rating, B. signalgrass (surinam grass; [2]) | B. signalgrass plant response rating (0 to 10 scale, 0 is no effect, 10 is complete control) (surinam grass; Preemergence, Rate 125 g/ha) | B. signalgrass plant response rating (surinam grass; [4]) | B. signalgrass plant response rating (surinam grass; [5]) | Plant response rating, B. signalgrass (surinam grass; [6]) | further results
1 | CCOC(=O)C(C)N(C(=O)n1oc(=O)n(C)c1=O)c1ccc(F)cc1 (stereo not shown) [Compound 365] | 0 | 0 | 0 | 0 | 0 | 0 | 0 | 0 | 0 | 0 | 0 | 0 | 0 | 0 | 0 | 0 | 0 | 0 | 0 | 0 | Sugarbeets plant response rating (sugar beet; [3]): 0; Plant response rating, Sugarbeets (sugar beet; [7]): 0; Blackgrass plant response rating (blackgrass; [3]): 0; Plant response rating, Blackgrass (blackgrass; [7]): 0; Barnyardgrass plant response rating (bamyardgrass; Rate 1000 g/ha, scale 0 to 10 (0 no effect, 10 complete control)): 0; Barnyardgrass plant response rating (bamyardgrass; [8]): 0; B. signalgrass plant response rating (surinam grass; [3]): 0; Plant response rating, B. signalgrass (surinam grass; [7]): 0
2 | CC(C)N(C(=O)n1oc(=O)n(C)c1=O)c1ccc(F)cc1F [Compound 368] | 0 | 2 | 8 | 10 | 10 | 3 | 7 | 8 | 9 | 10 | 10 | 8 | 0 | 7 | 5 | 6 | 6 | 8 | 8 | 7 | Plant response rating, Sugarbeets (sugar beet; [11]): 6; Sugarbeets plant response rating (sugar beet; [12]): 0; Plant response rating, Blackgrass (blackgrass; [11]): 8; Blackgrass plant response rating (blackgrass; [12]): 7; Plant response rating, Barnyardgrass (0 to 10 scale, 0 is no effect, 10 is complete control) (bamyardgrass; flood test species): 0; Barnyardgrass plant response rating (bamyardgrass; [8]): 0; Plant response rating, B. signalgrass (surinam grass; [11]): 1; B. signalgrass plant response rating (surinam grass; [12]): 0
3 | CC(C)N(C(=O)n1oc(=O)n(N2C(C)CCCC2C)c1=O)c1ccc(F)cc1F (stereo not shown) [Compound 383] | 0 | 0 | 0 | 0 | 0 | 0 | 0 | 2 | 0 | 2 | 7 | 8 | 0 | 0 | 0 | 0 | 0 | 0 | 6 | 0 | Plant response rating, Sugarbeets (sugar beet; [11]): 0; Sugarbeets plant response rating (sugar beet; [12]): 0; Plant response rating, Blackgrass (blackgrass; [11]): 0; Blackgrass plant response rating (blackgrass; [12]): 0; Plant response rating, Barnyardgrass (0 to 10 scale, 0 is no effect, 10 is complete control) (bamyardgrass; flood test species): 0; Barnyardgrass plant response rating (0 to 10 scale, 0 is no effect, 10 is complete control) (bamyardgrass; [13]): 0; Plant response rating, B. signalgrass (surinam grass; [11]): 0; B. signalgrass plant response rating (surinam grass; [12]): 0
4 | CC(C)N(C(=O)n1oc(=O)n(N2CCOCC2)c1=O)c1ccc(F)cc1 [Compound 385] | 0 | 0 | 1 | 2 | 7 | 0 | 0 | 2 | 0 | 6 | 10 | 8 | 0 | 0 | 3 | 6 | 0 | 7 | 9 | 8 | Plant response rating, Sugarbeets (sugar beet; [11]): 0; Sugarbeets plant response rating (sugar beet; [12]): 0; Plant response rating, Blackgrass (blackgrass; [11]): 0; Blackgrass plant response rating (blackgrass; [12]): 0; Plant response rating, Barnyardgrass (0 to 10 scale, 0 is no effect, 10 is complete control) (bamyardgrass; flood test species): 0; Barnyardgrass plant response rating (0 to 10 scale, 0 is no effect, 10 is complete control) (bamyardgrass; [13]): 0; Plant response rating, B. signalgrass (surinam grass; [11]): 0; B. signalgrass plant response rating (surinam grass; [12]): 0
5 | CC(C)N(C(=O)n1oc(=O)n(CC#N)c1=O)c1ccc(F)cc1 [Compound 395] | – | 0 | – | – | – | – | 0 | 0 | – | 0 | – | – | 0 | 0 | 0 | 0 | – | 0 | 0 | – | Sugarbeets plant response rating (sugar beet; [14]): 0; Plant response rating, Sugarbeets (sugar beet; [11]): 0; Plant response rating, Sugarbeets (sugar beet; [15]): 0; Sugarbeets plant response rating (sugar beet; Preemergence, Rate 250 g/ha, scale 0 to 10, 0 is no effect, 10 is complete control): 0; Sugarbeets plant response rating (sugar beet; [16]): 0; Sugarbeets plant response rating (sugar beet; [12]): 0; Blackgrass plant response rating (blackgrass; [14]): 5; Plant response rating, Blackgrass (blackgrass; [11]): 0; Plant response rating, Blackgrass (blackgrass; [15]): 0; Blackgrass plant response rating (blackgrass; [16]): 0; Blackgrass plant response rating (blackgrass; [12]): 0; Plant response rating, Barnyardgrass (0 to 10 scale, 0 is no effect, 10 is complete control) (bamyardgrass; flood test species): 0; Barnyardgrass plant response rating (0 to 10 scale, 0 is no effect, 10 is complete control) (bamyardgrass; [13]): 0; B. signalgrass plant response rating (surinam grass; [14]): 0; Plant response rating, B. signalgrass (surinam grass; [11]): 0; Plant response rating, B. signalgrass (surinam grass; [15]): 0; B. signalgrass plant response rating (surinam grass; [12]): 0

— US6737383B1, “Herbicidal oxadiazolidines” (priority 1999, dated 2004)
